Experimental data reported in patent US20080248002A1, “ANTI-ANGIOGENIC CELLULAR AGENT FOR CANCER THERAPY” (priority 1999, published 2008).

Tests used:
[1] = tested on: OCI-Ly8; experiment: BFA / conA treatment of CIK effector cells, lysis of OCI-Ly8; type: cell-based; conditions: day 21 CIK effector cells pre-incubated 2 hours with 1 μM BFA or 0.1 μM conA
Experimental: (§1) Brefeldin A (BFA) blocks the transport of FasL from intracellular stores to the cell surface (Lippincott-Schwartz et al. (1989) Cell 56:801; Lippincott-Schwartz et al. (1990) Cell 60:821; and Orci et al. (1991) Cell 64:1183). […] BFA was dissolved at 100 μg/ml in 70% ethanol and used fresh or stored up to 4 weeks at −20° C. Prior to cytotoxicity assays, the cells were rinsed three times with PBS and BFA-free fresh medium was added.
(§2) Concanamycin A (conA) depletes perforin contained in cytotoxic T-cell granules (Kataoka et al. (1996) J. Immunol. 156:3678; Ohminami et al. (1999) Blood 93:925). 15 ConA-treated effector cells were used in cytotoxicity assays to approximate the fractional contribution of the perforin/granzyme pathway to the total CIK cell mediated cytotoxicity.
(§3) Louis, Mo.). The cells were then incubated for 2 hours at 37° C. in a humidified atmosphere of 5% CO2.
(§4) BFA treatment of effector cells and the associated block of FasL transport reduced CIK lysis of the tumor target OCI-Ly8 by 33%, but had no effect on the lysis of EC targets (FIG. 4).

[2] = tested on: EC targets; experiment: BFA / conA treatment of CIK effector cells, lysis of EC targets; type: cell-based, human; conditions: day 21 CIK effector cells pre-incubated 2 hours with 1 μM BFA or 0.1 μM conA
Experimental: as §1, §2, §3, §4

[3] = tested on: EC; experiment: BFA pre-treatment of CIK targets, 51Cr release assay, EC; type: cell-based; conditions: targets pre-treated with 10 μM BFA, 20:1 E:T ratio
Experimental: (§5) CIK targets were treated with BFA and/or tunicamycin (TM). […] This resistance is sustained after BFA is removed from the media.

[4] = tested on: OCI-Ly8 tumor targets; experiment: BFA / TM pre-treatment of CIK targets, 51Cr release assay, OCI-Ly8 tumor targets; type: cell-based; conditions: 20:1 E:T ratio
Experimental: as §5

[5] = tested on: lymphoblastoid target AMK; experiment: BFA / TM pre-treatment of CIK targets, 51Cr release assay, lymphoblastoid target AMK; type: cell-based; conditions: target pre-treatment (TM 22 hr), 20:1 E:T ratio
Experimental: as §5

C[C@H]1CCC/C=C/[C@@H]2C[C@H](O)C[C@H]2[C@H](O)/C=C/C(=O)O1 [BFA, Brefeldin A]
reduction of CIK lysis of OCI-Ly8 [1]: 33% | effect on CIK lysis of EC targets [2]: no effect | protection of EC from CIK mediated lysis [3]: complete protection | effect of target pre-treatment on CIK killing of tumor targets [4]: did not reduce killing | effect of target pre-treatment on CIK killing of lymphoblastoid targets [5]: did not reduce killing

C/C=C/[C@H]1O[C@@](O)([C@@H](C)[C@H](O)[C@H](C)[C@H]2OC(=O)/C(OC)=C/C(C)=C/[C@@H](C)[C@@H](O)[C@@H](CC)[C@@H](O)[C@H](C)C/C(C)=C/C=C/[C@@H]2OC)C[C@@H](O[C@H]2C[C@@H](O)[C@H](OC(N)=O)[C@@H](C)O2)[C@@H]1C [Con A, Concanamycin A]
reduction of CIK lysis of OCI-Ly8 [1]: 66% | effect on CIK lysis of EC targets [2]: completely abolished EC lysis

tunicamycin [TM]
effect of target pre-treatment on CIK killing of tumor targets [4]: Neither TM or TM and BFA together altered CIK mediated lysis | effect of target pre-treatment on CIK killing of lymphoblastoid targets [5]: rendered susceptible
